Results reported in paper PMC11858854, “In Vitro and In Vivo Assessment of Pharmacokinetic Profile of Peramivir in the Context of Inhalation Therapy” (Pharmaceuticals, 2025).

Experiments:
[1] = system: NCI-H441/dTHP co-culture model; experiment: Bidirectional transport, NCI-H441/dTHP co-culture model; assay type: in vitro ADME, human; details: for ER: NCI-H441/dTHP, 2 μM
Description: (§1) THP-1 cells were cultured in RPMI-1640 medium (Gibco, Thermo, CA, USA) supplemented with 10% FBS, PS (100 U/mL), and β-Mer (0.05 mM) at 37 °C in a humidified 5% CO2 incubator, and the medium was changed every other day. THP-1 cells were seeded at 4 × 10^5 cells/mL in six-well plates and induced for 48 h by adding medium containing a final concentration of 100 ng/mL PMA.
(§2) Then, the differentiated cells were seeded at 5 × 10^4 cells/well on the surface of NCI-H441 cells 10 days after air–liquid culture and continued to co-culture for 24 h.
(§3) We removed the liquid from the apical and basolateral of the Transwell, rinsed the cells three times with a buffer containing HBSS, 10 mM Hepes, and 0.1% BSA (Buffer A), and then added Buffer A (100 µL for the apical side and 600 µL for the basolateral side) for pre-incubation for 30 min at 37 °C. For the transport studies in the apical to basolateral (A-B) direction, 100 μL of pre-warmed test solution (Buffer A containing 2 µM positive control drugs or peramivir) was added to the apical side, while 600 μL of pre-warmed assay buffer, a buffer containing HBSS, 10 mM Hepes, and 1% BSA (Buffer B), was added to the basolateral compartment.

[2] = Permeability assay, LLC-PK1-MOCK cells; assay type: in vitro ADME; details: pig, LLC-PK1, 2 μM; for Papp A→B at 2 h, 2 µM / Papp B→A at 2 h, 2 µM: Mean ± SD, n = 3; for efflux ratio at 2 h, 2 µM: read-out: ER
Description: (§5) When the cell transport system was mature in culture, experiments were performed. […] When assessing permeability in basolateral to apical (B-A) direction, 100 μL of pre-warmed Buffer B and 600 μL of pre-warmed test solutions were added to the apical and basolateral compartments, respectively. The Transwells® were placed in an incubator at 37 °C and 5% CO2 for a duration of 2 h. At the end of the incubation period, the samples in the apical and basolateral sides were collected separately and were briefly kept at a temperature of −40 °C for LC-MS/MS analysis. […] The cells were transferred to Transwell® plates (Corning, NY, USA) at a density of 2 × 10^4 cells/well with 200 μL of cell suspension per well, while 850 μL of complete medium was added to the basolateral chamber. […] The samples were collected separately and were briefly kept at a temperature of −40 °C for LC-MS/MS analysis.

human MDR1 (P-gp) = human MDR1 (P-gp) (Homo sapiens, UniProt P08183); experiment: Permeability assay, LLC-PK1-MDR1 cells overexpressing P-gp; details: LLC-PK1-MDR1, 2 μM, Mean ± SD, n = 3
human MDR1 (P-gp), sequence (P08183 whole entry): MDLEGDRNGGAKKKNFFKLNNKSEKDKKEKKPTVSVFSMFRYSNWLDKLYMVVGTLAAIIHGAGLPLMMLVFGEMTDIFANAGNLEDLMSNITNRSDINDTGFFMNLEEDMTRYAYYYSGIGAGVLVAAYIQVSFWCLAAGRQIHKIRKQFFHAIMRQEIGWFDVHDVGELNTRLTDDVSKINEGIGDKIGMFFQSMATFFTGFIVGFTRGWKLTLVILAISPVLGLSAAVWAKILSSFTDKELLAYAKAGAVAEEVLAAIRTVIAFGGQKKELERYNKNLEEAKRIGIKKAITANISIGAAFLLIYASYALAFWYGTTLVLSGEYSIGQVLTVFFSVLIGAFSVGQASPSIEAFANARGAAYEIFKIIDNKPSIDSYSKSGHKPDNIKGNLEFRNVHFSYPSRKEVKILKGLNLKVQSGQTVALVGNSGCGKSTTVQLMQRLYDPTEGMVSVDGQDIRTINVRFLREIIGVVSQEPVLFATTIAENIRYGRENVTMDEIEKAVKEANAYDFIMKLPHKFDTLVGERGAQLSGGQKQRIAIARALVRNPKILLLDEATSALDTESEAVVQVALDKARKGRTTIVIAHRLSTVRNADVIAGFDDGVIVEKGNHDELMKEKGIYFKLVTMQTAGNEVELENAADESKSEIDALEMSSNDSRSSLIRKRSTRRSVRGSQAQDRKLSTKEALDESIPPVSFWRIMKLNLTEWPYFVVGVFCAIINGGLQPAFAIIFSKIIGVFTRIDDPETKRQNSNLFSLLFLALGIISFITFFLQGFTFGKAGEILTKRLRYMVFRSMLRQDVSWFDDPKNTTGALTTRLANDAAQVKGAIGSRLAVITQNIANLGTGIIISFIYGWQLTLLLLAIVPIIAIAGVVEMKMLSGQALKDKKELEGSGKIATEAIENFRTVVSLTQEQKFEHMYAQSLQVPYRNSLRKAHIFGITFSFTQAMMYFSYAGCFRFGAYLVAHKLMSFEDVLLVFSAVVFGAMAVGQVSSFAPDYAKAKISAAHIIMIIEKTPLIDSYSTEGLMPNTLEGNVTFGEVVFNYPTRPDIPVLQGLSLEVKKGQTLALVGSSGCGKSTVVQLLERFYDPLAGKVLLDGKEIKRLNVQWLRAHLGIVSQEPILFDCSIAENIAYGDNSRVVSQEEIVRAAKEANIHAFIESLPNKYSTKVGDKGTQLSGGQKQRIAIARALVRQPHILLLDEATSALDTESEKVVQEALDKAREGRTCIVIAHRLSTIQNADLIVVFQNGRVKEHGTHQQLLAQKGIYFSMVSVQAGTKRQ
Description: as §5

P-gp (MDR1) = P-gp (MDR1) (Homo sapiens, UniProt P08183); experiment: as above; details: for Papp B→A at 2 h, 2 µM / efflux ratio at 2 h, 2 µM: human, LLC-PK1
P-gp (MDR1), sequence (P08183 whole entry): as above
Description: as §5

[3] = Bidirectional transport, Calu-3 air-liquid culture model; details: human
P-gp = experiment: as above; details: human, with tariquidar 5 µM
NCI-H441 cell model = experiment: Bidirectional transport, NCI-H441 air-liquid culture model; assay type: in vitro ADME, human
Description: (§4) NCI-H441 cells were cultured in RPMI-1640 medium (Gibco, Thermo, CA, USA) supplemented with 10% FBS and PS (100 U/mL) at 37 °C in a humidified 5% CO2 incubator, and the medium was changed every other day. […] Then, 850 μL of complete medium (containing 200 nM dexamethasone) was added to the basolateral chamber. […] Subsequently, an air-interfaced culture (AIC) was initiated by supplying 650 μL of culture medium to the basolateral chamber only. The culture medium was replaced every other day.
as §3

Calu-3 cell model = experiment: Bidirectional transport, Calu-3 air-liquid culture model; details: Calu-3, about 14 days air–liquid interface
[4] = Bidirectional transport, NCI-H441/dTHP co-culture model; assay type: in vitro ADME, human; details: human; NCI-H441/dTHP, 2 μM, Mean ± SD, n = 3
Description: as §1, §2, §3

[5] = Bidirectional transport, NCI-H441 air-liquid culture model; assay type: in vitro ADME, human; details: human, NCI-H441, 2 μM; for Papp A→B at 2 h, 2 µM / Papp B→A at 2 h, 2 µM: Mean ± SD, n = 3
Description: as §4, §3

BCRP = experiment: as above; assay type: in vitro ADME, human; details: human, with ko143 5 µM; NCI-H441, topotecan 2 μM with BCRP inhibitor ko143 (5 μM); read-out: ER value, inhibitor group
Description: as §4, §3

[6] = administered orally; cited from earlier work

Structure (SMILES)	ER [1]	Papp A→B at 2 h, 2 µM [2]	Papp B→A at 2 h, 2 µM [2]	efflux ratio at 2 h, 2 µM [2]	Papp B→A at 2 h, 2 µM (P-gp (MDR1))	efflux ratio at 2 h, 2 µM (P-gp (MDR1))	Papp A→B at 2 h, 2 µM [3]	Papp B→A at 2 h, 2 µM [3]	Papp A→B at 2 h, 2 µM [4]	Papp B→A at 2 h, 2 µM [4]	Papp A→B at 2 h, 2 µM [5]	Papp B→A at 2 h, 2 µM [5]	other results
C[C@H]1O[C@@H](O[C@H]2[C@@H](O)C[C@H](O[C@H]3[C@@H](O)C[C@H](O[C@H]4CC[C@@]5(C)[C@H](CC[C@@H]6[C@@H]5C[C@@H](O)[C@]5(C)[C@@H](C7=CC(=O)OC7)CC[C@]65O)C4)O[C@@H]3C)O[C@@H]2C)C[C@H](O)[C@@H]1O [Digoxin]		1.64 ± 0.27 ×10⁻⁶ cm/s	2.22 ± 0.36 ×10⁻⁶ cm/s	1.35	9.76 ± 0.73 ×10⁻⁶ cm/s	13.1	0.66 ± 0.02 ×10⁻⁶ cm/s	25.1 ± 7.18 ×10⁻⁶ cm/s					Papp A-B (human MDR1 (P-gp)): 0.74 ± 0.15 ×10−6 cm/s; efflux ratio at 2 h, 2 µM (P-gp): ~1
NNC(=O)NN1C(=O)c2cc(S(=O)(=O)[O-])cc3c(N)c(S(=O)(=O)[O-])cc(c23)C1=O.[K+].[K+] [Lucifer yellow CH dipotassium salt]													permeability value (barrier integrity) ([1]; NCI-H441/dTHP co-culture 24 h): < 2 ×10⁻⁶ cm/s; permeability value (barrier integrity) (NCI-H441 cell model; NCI-H441, about 7 days air–liquid interface): < 2 ×10⁻⁶ cm/s; permeability value (barrier integrity) (Calu-3 cell model): < 2 ×10⁻⁶ cm/s
CC(=O)N[C@H]1[C@H]([C@H](O)[C@H](O)CO)OC(C(=O)O)=C[C@@H]1N=C(N)N [zanamivir]													absolute bioavailability [6]: approximately 2%

Now from value to compound, other results behind:

ER [1]	Papp A→B at 2 h, 2 µM [2]	Papp B→A at 2 h, 2 µM [2]	efflux ratio at 2 h, 2 µM [2]	Papp B→A at 2 h, 2 µM (P-gp (MDR1))	efflux ratio at 2 h, 2 µM (P-gp (MDR1))	Papp A→B at 2 h, 2 µM [3]	Papp B→A at 2 h, 2 µM [3]	Papp A→B at 2 h, 2 µM [4]	Papp B→A at 2 h, 2 µM [4]	Papp A→B at 2 h, 2 µM [5]	Papp B→A at 2 h, 2 µM [5]	Structure (SMILES)	other results
0.88												CC(C)NCC(O)COc1ccc(CC(N)=O)cc1 (stereo not drawn) [Atenolol]	
0.90	28.5 ± 2.17 ×10⁻⁶ cm/s	25.6 ± 3.71 ×10⁻⁶ cm/s	0.9	23.1 ± 1.94 ×10⁻⁶ cm/s	1.13	29.8 ± 2.28 ×10⁻⁶ cm/s	21.9 ± 3.73 ×10⁻⁶ cm/s	27.9 ± 7.99 ×10⁻⁶ cm/s	24.36 ± 0.22 ×10⁻⁶ cm/s	25.6 ± 5.45 ×10⁻⁶ cm/s	23.4 ± 2.96 ×10⁻⁶ cm/s	COCCc1ccc(OCC(O)CNC(C)C)cc1 (stereo not drawn) [Metoprolol]	Papp A→B at 2 h, 2 µM (P-gp (MDR1)): 20.4 ± 1.24 ×10⁻⁶ cm/s; ER (NCI-H441 cell model; NCI-H441, 2 μM): 0.91; efflux ratio at 2 h, 2 µM [3]: 29.8 ± 2.28
2.15								2.88 ± 0.55 ×10⁻⁶ cm/s	6.18 ± 1.63 ×10⁻⁶ cm/s	1.54 ± 0.12 ×10⁻⁶ cm/s	3.47 ± 0.26 ×10⁻⁶ cm/s	CC[C@@]1(O)C(=O)OCc2c1cc1n(c2=O)Cc2cc3c(CN(C)C)c(O)ccc3nc2-1 [Topotecan]	efflux ratio at 2 h, 2 µM ([5]; read-out: ER): 2.25; efflux ratio at 2 h, 2 µM (BCRP): ~1
